Among the data in US6436954B1, “Benzoquinolizidine and benzoindolizidine derivatives and therapeutic uses thereof” (priority 1998, dated 2002) are melting point values, retold here.

The melting point is the temperature, or range, at which the solid turns liquid.

Regarding `O[C@@H]1c2ccccc2CN2CCC[C@@H]12` (relative stereo), the melting point was 131 to 133 °C.
